Test results: patent US10093675B2, “6,8-disubstituted-9-(heterocyclyl)purines, compositions containing these derivatives and their use in cosmetic and medicinal applications” (USTAV EXPERIMENTALNI BOTANIKY AV CR, V.V.I., priority 2014, dated 2018)

Assays:
[1] = system: excised wheat leaf tips (Triticum aestivum cv. Hereward); assay: Senescence inhibition on winter wheat leaf segments (retention of chlorophyll); type: in vivo; details: 10^−4 mol/L; 96 hours in the dark; activity of kinetin set at 100%
Protocol: (§1) Seeds of winter wheat, Triticum aestivum cv. Hereward, were washed under running water for 24 hours and then sown on vermiculite soaked with Knop's solution. They were placed in the grown chamber at 25° C. with a 16/8 hours light period at […]. After 7 days, the first leaf was fully developed and the second leaf had started to grow. A tip section of the first leaf, approximately 35 mm long, was removed from 5 seedlings and trimmed slightly to a combined weight of 100 mg. The basal ends of the five leaf tips were placed in the wells of a microtiter polystyrene plate containing […] of a cytokinin solution each. The entire plate was inserted into a plastic box lined with paper tissues soaked in distilled water to prevent leaf sections from drying out. After 96 hours incubation in the dark at 25° C., the leaves were removed and chlorophyll extracted by heating at 80 C for 10 min in 5 ml of 80% ethanol (v/v). The sample volume was then restored to 5 ml by the addition of 80% ethanol (v/v). The absorbance of the extract was recorded at 665 nm. In addition, chlorophyll extracts from fresh leaves and leaf tips incubated in deionized water were measured. From the obtained data, the concentration with highest activity was selected for each compound tested. Relative activity of the compound at this concentration was calculated (see Table 6 below). The activity obtained for 10^−4 M kinetin (Kin) was set as 100%. The values shown are means of five replicates and the whole experiment was repeated twice.
The compounds to be tested were dissolved in dimethylsulfoxide (DMSO) and the solution brought up to 10^−3 M with distilled water. […] As summarized in Table 6 below, the presence of C-8 substitutent was beneficial and led to increase of antisenescent properties.

[2] = system: detached leaves of Triticum aestivum cv. Hereward; assay: Membrane lipid peroxidation (MDA, TBA method) in detached wheat leaves during dark senescence; type: in vivo; details: four days in the dark, Control 18.9 (±2.2)
Protocol: A typical symptom associated with senescence as a direct consequence of increased reactive oxygen species is lipid peroxidation. Therefore the levels of MDA, a decomposition product of lipid peroxidation, were measured in detached wheat leaves that were exposed to the prepared novel derivatives and kinetin for four days in the dark as described in Example 8. MDA levels were measured using a thiobarbituric acid (TBA) method. In detail, 100 mg of fresh plant material was homogenized by high speed shaking in a ball mill (MM301, Retsch, Germany) with 1 mL of 80% methanol. The crude extract was centrifuged at 10,000×g for 5 min, and 100 μL aliquot of supernatant was vortexed with 100 μL of 0.5% (w/v) TBA containing 0.1% (w/v) trichloroacetic acid, and the resulting solution was then incubated for 30 min at 95° C. The samples were quickly cooled on ice and recentrifuged for 5 min at 1000×g. The absorbance of supernatant was measured at 532 nm with background subtraction at 600 nm and the amount of MDA-TBA complex was calculated from the coefficient of absorbance 155 mM^−1cm^−1.
as §1

[3] = system: Salmonella typhimurium histidien auxotrophs TA98 and TA100; assay: Ames test; type: cell-based; details: 2.5 to 5000 μg/plate; presence and absence of Aroclor-induced rat liver S9
Protocol: A number of tests related to the safety of have been carried out using conventionally accepted protocols and procedures. The results of these studies are summarized herein. Tests were carried out using DMSO as solvent and dose levels of compound 21, 24, 26, 27, 39, 41, 45, 48, 50, 52, 53, 54, 55, 56, 63, 64, 66, 67, 68, 69, 70, 71, 72, 74, 76, 124, 125, 126, 127, 128, 129, 130, 145, 146, 147, 149, 150, 151, 208, 216, 218 a 243 at 2.5, 5.0, 15, 50, 500, 1500, and 5000 μg/plate based upon standard protocol and procedures (Ames et al., Mutation Research, 31, 347-364 (1975); Maron et al., Mutation Research, 113, 173-215 (1983)).

[4] = system: human diploid fibroblasts (HDF cells; HDF25, HDF45, HDF80); assay: Inhibition of human cell aging: senescent cells by beta-galactosidase staining; type: cell-based; details: for SENESCENT CELLS (%) HDF25: human diploid fibroblasts passage 25, beta-galactosidase staining; for SENESCENT CELLS (%) HDF45: human diploid fibroblasts passage 45, beta-galactosidase staining; for SENESCENT CELLS (%) HDF80: human diploid fibroblasts passage 80, beta-galactosidase staining
Protocol: In this example, human diploid fibroblasts (HDF cells of various passage levels: passage 25—designated HDF25; passage 45—designated HDF45; passage 80—designated HDF80) were stained for beta-galactosidase activity. The medium used for the cell cultivation was removed the cells were washed twice in […], and fixed in 2-3 ml of fixing solution comprised of a 2% formaldehyde and 0.2% glutaraldehyde in PBS. The cells were incubated at room temperature for 5 minutes, and then washed twice with PBS. The cells were subsequently incubated at 37° C. […] In this experiment, senescent cells, but no other cells were stained blue due to the action of beta-galactosidase on the substrate.

| SMILES | MDA (nmol/g FW) [2] | other results |
| --- | --- | --- |
| Clc1nc2c(NCc3ccco3)ncnc2n1C1CCCCO1 (stereo not drawn) [Compound 1, 8-Chloro-6-furfurylamino-9-(tetrahydropyran-2-yl)-9H-purine] | 12.8 (±1.0) nmol/g FW | Activity (%) (s.d.), retention of chlorophyll [1]: 105 (±3) % |
| Oc1ccc(CNc2ncnc3c2nc(Cl)n3C2CCCCO2)cc1O (stereo not drawn) [Compound 10] | 12.8 (±1.1) nmol/g FW | Activity (%) (s.d.), retention of chlorophyll [1]: 132 (±7) % |
| Oc1ccc(CNc2ncnc3c2nc(Cl)n3C2CCCCO2)cc1 (stereo not drawn) [Compound 13] | 11.9 (±1.3) nmol/g FW | – |
| COc1cc(CNc2ncnc3c2nc(Cl)n3C2CCCCO2)cc(OC)c1O (stereo not drawn) [Compound 14] | 12.2 (±1.4) nmol/g FW | – |
| Oc1ccc(Nc2ncnc3c2nc(Cl)n3C2CCCCO2)cc1 (stereo not drawn) [Compound 16] | 11.6 (±1.0) nmol/g FW | – |
| Brc1nc2c(NCc3ccco3)ncnc2n1C1CCCCO1 (stereo not drawn) [Compound 21, 8-Bromo-6-furfurylamino-9-(tetrahydropyran-2-yl)-9H-purine] | 12.1 (±1.2) nmol/g FW | mutagenic response [3]: no positive mutagenic responses; Activity (%) (s.d.), retention of chlorophyll [1]: 108 (±3) %; SENESCENT CELLS (%) HDF25 [4]: 3%; SENESCENT CELLS (%) HDF45 [4]: 5%; SENESCENT CELLS (%) HDF80 [4]: 20% |
| C/C(=C/CNc1ncnc2c1nc(Br)n2C1CCCCO1)CO (stereo not drawn) [Compound 25] | 11.7 (±1.1) nmol/g FW | – |
| Oc1ccc(CNc2ncnc3c2nc(Br)n3C2CCCCO2)cc1O (stereo not drawn) [Compound 39] | 11.6 (±1.2) nmol/g FW | mutagenic response [3]: no positive mutagenic responses; Activity (%) (s.d.), retention of chlorophyll [1]: 128 (±3) %; SENESCENT CELLS (%) HDF25 [4]: 3%; SENESCENT CELLS (%) HDF45 [4]: 4%; SENESCENT CELLS (%) HDF80 [4]: 20% |
| Oc1ccc(Nc2ncnc3c2nc(Br)n3C2CCCCO2)cc1 (stereo not drawn) [Compound 44] | 10.7 (±0.8) nmol/g FW | – |
| C/C(=C/CNc1ncnc2c1nc(N(C)C)n2C1CCCO1)CO (stereo not drawn) [Compound 189] | 10.8 (±0.9) nmol/g FW | – |
| Nc1nc2c(NCc3ccco3)ncnc2n1C1CCCO1 (stereo not drawn) [Compound 197] | 9.2 (±0.6) nmol/g FW | – |
| Nc1nc2c(NCc3ccc(O)cc3)ncnc2n1C1CCCO1 (stereo not drawn) [Compound 201] | 8.7 (±0.7) nmol/g FW | – |
| Oc1nc2c(NCc3ccco3)ncnc2n1C1CCCO1 (stereo not drawn) [Compound 221] | 10.2 (±0.5) nmol/g FW | – |
| Oc1ccc(CNc2ncnc3c2nc(O)n3C2CCCO2)cc1 (stereo not drawn) [Compound 224] | 9.3 (±0.8) nmol/g FW | – |
| NCCNc1nc2c(NCc3ccco3)ncnc2n1C1CCCO1 (stereo not drawn) [Compound 233] | 9.8 (±0.7) nmol/g FW | – |
| NCCCNc1nc2c(NCc3ccco3)ncnc2n1C1CCCO1 (stereo not drawn) [Compound 238] | 9.4 (±0.7) nmol/g FW | – |
| NCCCOc1nc2c(NCc3ccco3)ncnc2n1C1CCCO1 (stereo not drawn) [Compound 241] | 9.6 (±0.8) nmol/g FW | – |
| CC(C)=CCNc1ncnc2c1nc(NCCO)n2C1CCCO1 (stereo not drawn) [Compound 245] | 9.5 (±0.6) nmol/g FW | – |
